Laboratory results taken from paper PMC11602115 (Journal of Medicinal Chemistry, 2017).
Where two headings read alike, the source gives them in different places.

What was measured:
EP2 = EP2 (Homo sapiens, UniProt P43116); test: cAMP HTRF agonist assay, EP2; format: cell-based; settings: cAMP HTRF agonist assay
From the text: (§1) Table Sup2: Data with some comparator compounds in functional assays. […]

human DP1 receptor = target: T1, human DP1 receptor (Homo sapiens, UniProt Q13258); test: HTRF cAMP assay, recombinant human DP1 receptor in CHO-K1 cells; format: cell-based; settings: for Emax: CHO-K1, intrinsic activity relative to 1 μM PGD2, read-out: hDP1 % IA
T1 construct: expressed in transfected cells
T1 sequence (Q13258 1-359): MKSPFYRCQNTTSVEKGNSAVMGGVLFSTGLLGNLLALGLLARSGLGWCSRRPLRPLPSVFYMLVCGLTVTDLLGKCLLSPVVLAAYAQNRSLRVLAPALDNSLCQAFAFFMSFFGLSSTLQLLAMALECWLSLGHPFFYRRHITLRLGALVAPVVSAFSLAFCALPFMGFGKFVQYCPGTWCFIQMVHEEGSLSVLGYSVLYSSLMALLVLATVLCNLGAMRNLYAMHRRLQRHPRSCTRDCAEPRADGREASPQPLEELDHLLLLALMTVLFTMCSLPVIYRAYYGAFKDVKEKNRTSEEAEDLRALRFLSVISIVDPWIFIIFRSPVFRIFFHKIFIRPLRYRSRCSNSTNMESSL
Experimental: (§2) The new compounds were tested for functional agonist activity in a standard (Cisbio) cAMP assay using recombinant IP or DP1 receptors stably expressed in CHO-K1 cells. Clonal cell lines were derived following standard protocols, but receptor expression levels were kept to a minimum to preclude receptor reserve effects.
(§3) For development of cAMP accumulation assays, recombinant IP or DP1 receptors were stably expressed in CHO-K1 cells and clonal cell lines derived following standard protocols. Receptor expression levels were minimized to preclude receptor reserve effects. HTRF cAMP assays were performed according to the manufacturer’s instructions (Cisbio, cAMP Dynamic 2 assay kit; no. 62AM4PEJ). IP receptor-expressing cells were harvested, resuspended in assay buffer (PBS containing 1 mM IBMX and 0.2% BSA) at a density of 200 000 cells per mL, and dispensed into 384-well assay plates (PerkinElmer Proxiplate no. 6008280) at 5 μL per well. Test compounds were solubilized and serially diluted in DMSO using 5-fold dilutions to generate a 10-point dose–response curve with a top concentration of 10 μM. The samples were then further diluted in PBS to achieve a 2× stock. Diluted compounds were then transferred to a triplicate set of assay plates (5 μL per well). After a 1 h incubation at room temperature, 5 μL of cAMP-D2 reagent diluted in lysis buffer was added to each well followed by 5 μL of cryptate reagent. Plates were then incubated at room temperature for 1 h prior to reading. Time-resolved fluorescence measurements were collected on PerkinElmer Envision or BMG Pherastar microplate readers.

EP4 = EP4 (Homo sapiens, UniProt P35408); test: cAMP HTRF agonist assay, EP4; format: cell-based; settings: cAMP HTRF agonist assay
From the text: (§4) Table Sup2: Data with some comparator compounds in functional assays.
(§5) Compound DP1 EP1 EP2 EP3v6 EP4
(§6) EC50, µµµµM (% I.A) EC50, µµµµM (% I.A) EC50, µµµµM (% I.A) EC50, µµµµM (% I.A) EC50, µµµµM (% I.A)
(§7) n = 3 n = 2 n = 8 n = 6 n = 6 […]

EP1 = target: T2, EP1 (Homo sapiens, UniProt P34995); test: cAMP HTRF agonist assay, EP1; format: cell-based
T2 sequence (P34995 1-402): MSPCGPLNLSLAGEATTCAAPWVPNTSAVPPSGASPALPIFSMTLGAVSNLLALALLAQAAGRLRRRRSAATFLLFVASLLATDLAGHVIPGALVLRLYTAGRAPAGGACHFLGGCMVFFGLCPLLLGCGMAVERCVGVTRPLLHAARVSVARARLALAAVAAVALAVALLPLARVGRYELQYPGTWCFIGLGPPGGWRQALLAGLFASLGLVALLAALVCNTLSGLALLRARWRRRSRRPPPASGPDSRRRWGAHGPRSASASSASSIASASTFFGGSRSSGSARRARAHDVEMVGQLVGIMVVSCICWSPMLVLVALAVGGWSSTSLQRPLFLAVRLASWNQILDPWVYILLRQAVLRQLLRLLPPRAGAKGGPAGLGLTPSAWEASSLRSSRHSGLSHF
From the text: as §4, §5, §6, §7

Rat PK (iv and oral) = format: in vivo; settings: for AUC(0-inf) / bioavailability: Sprague-Dawley, plasma; for AUC(0-inf): after oral administration 10 mg/kg (5m 10.5); for bioavailability: po, 10 mg/kg; for Cmax / Tmax: po 10 mg/kg (5m 10.5); for T1/2: terminal half-life after iv 2 mg/kg (5m 2.1); for Clobs: total clearance, iv 2 mg/kg (5m 2.1)
[1] = Stability in rat microsome preparations; format: in vitro ADME; settings: incubation at 37 °C, rat microsomes; read-out: rat MS, T1/2
From the text: (§8) Table 1 Screening Data for Selected Analogues ^a | column: human and rat MS, T1/2 (min) ^g

rat IP = rat IP (Rattus norvegicus, UniProt P43253); test: HTRF cAMP assay, recombinant rat IP receptor; format: cell-based; set-up: expressed in transfected cells; settings: for EC50: HTRF (cAMP) rat IP receptor assay, mean of at least three determinations; for Emax: read-out: rIP % IA
Experimental: as §2, §3

human platelet = test: Inhibition of ADP-induced human platelet aggregation; format: cell-based; settings: aggregation induced by 2.5 μM ADP, mean of at least two determinations
Experimental: Such aggregated and activated platelets produce vasoactive substances such as thromboxane and serotonin that may cause harmful vasoconstriction and vascular remodeling.[13] […] This secondary assay was carried out as previously described,[14] with aggregation induced by 2.5 μM ADP in the presence or absence of IP receptor agonists.

[2] = Stability in human microsome preparations; format: in vitro ADME; settings: incubation at 37 °C, human microsomes; read-out: human MS, T1/2
From the text: as §8

IP [3] = target: T3, IP (Homo sapiens, UniProt P43119); test: HTRF cAMP assay, recombinant human IP receptor stably expressed in CHO-K1 cells; format: cell-based; set-up: expressed in transfected cells
Experimental: as §2, §3

[4] = system: primary human pulmonary arterial smooth muscle cells; test: HTRF cAMP assay in primary human pulmonary arterial smooth muscle cells; format: cell-based
Experimental: Additional In Vitro Assays […]
Compounds were also evaluated in HTRF cAMP assays using primary human pulmonary arterial smooth muscle cells (Cell Applications, Inc., #352Kq05a, or ThermoFisher/Gibco, #C0095C) using the same basic assay protocol outlined in the Experimental section. Cells were cultured as recommended by the suppliers, used at low passage and seeded into 384qwell assay plates at a density of 700q900 cell per well

EP3v6 = target: T4, EP3v6 (Homo sapiens, UniProt P43115); test: Melanophore dispersion assay, EP3v6; format: cell-based; set-up: expressed in transfected cells; host or cells: melanophores (transient, electroporation); settings: melanophore dispersion assay (Gi)
T4 sequence (P43115 1-374 isoform P43115-4): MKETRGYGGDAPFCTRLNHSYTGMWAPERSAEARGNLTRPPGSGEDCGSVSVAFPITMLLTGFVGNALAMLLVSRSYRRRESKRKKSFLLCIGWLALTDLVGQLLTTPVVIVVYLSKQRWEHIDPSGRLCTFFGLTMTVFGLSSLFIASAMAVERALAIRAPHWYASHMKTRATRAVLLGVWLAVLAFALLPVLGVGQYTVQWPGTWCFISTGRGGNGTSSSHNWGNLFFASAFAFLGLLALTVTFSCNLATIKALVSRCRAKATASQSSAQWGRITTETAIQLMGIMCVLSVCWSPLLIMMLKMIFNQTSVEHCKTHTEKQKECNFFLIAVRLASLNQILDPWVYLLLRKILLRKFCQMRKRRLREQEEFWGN
Experimental: For the EP3v6 receptor functional assay, melanophores were transfected by electroporation using 20 μg of recombinant human EP3v6 receptor plasmid DNA per 400 μL of cell suspension. Transfected cells were immediately resuspended in fresh growth medium and plated in 384-well clear, polystyrene microplates. Plated cells were incubated at 27 °C for 48 h after transfection in order to achieve optimal receptor expression. To perform the assay, growth medium was removed from the assay plates and replaced with assay buffer (40 μL/well, 0.7× PBS, pH 7.3, supplemented with 20 nM melatonin to induce pigment aggregation). Following a 90 min incubation at room temperature, a 650 nm absorbance reading was collected and test compounds (10 μL per well) were transferred to the assay plates. Plates were incubated for 90 min at room temperature to allow compound-induced pigment redistribution to take place, and final absorbance reading was then collected. Test compounds were solubilized and serially diluted in DMSO, using 5-fold dilutions, to generate a 10-point dose–response curve with a top concentration of 10 μM (final assay concentration). Samples were then further diluted in assay buffer to achieve a 5× stock prior to addition to the assay plates. A SpectraMax absorbance plate reader (Molecular Devices, Inc.) was used for data collection.
as §1

IP [5] = target: T3, IP; test: Recombinant human IP receptor cAMP assay after elimination of receptor reserve (transient CHO); format: cell-based; set-up: expressed in transfected cells; settings: following elimination of receptor reserve
From the text: Additional In Vitro Assays
To determine the potency and efficacy of compounds in cAMP assays in the absence of receptor reserve effects, the cDNA sequence of the human IP receptor was subqcloned into an expression plasmid containing a ubiquitin promoter in place of the more commonly used CMV promoter. The ubiquitin […]
level of receptor expression after transfection into a suitable cell line. This plasmid was transiently transfected into CHO cells using lipofectamine, following standard protocols. The quantity of transfected plasmid DNA was titrated down from 16 µg to 1 ng per transfection using empty vector as carrier DNA.

[6] = cAMP HTRF agonist assay (Gs), Table Sup2
[7] = cAMP HTRF agonist assay (Gs), Table Sup2, read-out: DP1 EC50
[8] = HTRF (cAMP) human DP1 receptor assay, mean of at least three determinations, read-out: EC50 hDP1
[9] = HTRF (cAMP) human IP receptor assay; mean of at least three determinations

rat IP, sequence (P43253 whole entry): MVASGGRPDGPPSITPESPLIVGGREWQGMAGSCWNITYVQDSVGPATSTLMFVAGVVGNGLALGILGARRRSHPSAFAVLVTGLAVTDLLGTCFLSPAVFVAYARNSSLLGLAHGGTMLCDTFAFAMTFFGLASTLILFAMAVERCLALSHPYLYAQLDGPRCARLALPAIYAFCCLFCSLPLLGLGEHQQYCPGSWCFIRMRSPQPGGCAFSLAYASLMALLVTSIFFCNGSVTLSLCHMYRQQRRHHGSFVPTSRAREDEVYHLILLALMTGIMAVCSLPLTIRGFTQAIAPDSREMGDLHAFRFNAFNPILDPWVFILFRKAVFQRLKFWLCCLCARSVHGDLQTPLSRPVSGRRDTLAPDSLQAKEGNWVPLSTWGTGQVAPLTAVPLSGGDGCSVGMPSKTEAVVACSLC
T3 sequence (P43119 whole entry): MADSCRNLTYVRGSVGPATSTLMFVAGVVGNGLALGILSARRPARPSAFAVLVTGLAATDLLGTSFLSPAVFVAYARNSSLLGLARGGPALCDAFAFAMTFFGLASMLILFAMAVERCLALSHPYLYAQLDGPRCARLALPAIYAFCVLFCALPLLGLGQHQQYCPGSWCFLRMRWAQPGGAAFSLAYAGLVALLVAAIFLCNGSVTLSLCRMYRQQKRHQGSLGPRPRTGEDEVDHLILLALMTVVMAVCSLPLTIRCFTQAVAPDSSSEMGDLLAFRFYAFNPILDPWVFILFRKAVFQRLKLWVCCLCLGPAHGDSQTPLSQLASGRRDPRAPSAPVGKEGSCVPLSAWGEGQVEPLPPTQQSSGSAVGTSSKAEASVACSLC
EP2, sequence (P43116 whole entry): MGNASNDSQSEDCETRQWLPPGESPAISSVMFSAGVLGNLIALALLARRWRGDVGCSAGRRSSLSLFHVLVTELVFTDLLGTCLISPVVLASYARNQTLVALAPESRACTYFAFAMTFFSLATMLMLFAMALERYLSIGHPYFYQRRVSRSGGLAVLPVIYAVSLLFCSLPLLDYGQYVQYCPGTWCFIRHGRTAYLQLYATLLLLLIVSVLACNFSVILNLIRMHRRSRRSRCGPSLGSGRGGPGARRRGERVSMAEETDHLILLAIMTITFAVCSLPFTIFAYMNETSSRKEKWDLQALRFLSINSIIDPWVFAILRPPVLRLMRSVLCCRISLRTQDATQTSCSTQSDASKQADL
EP4, sequence (P35408 whole entry): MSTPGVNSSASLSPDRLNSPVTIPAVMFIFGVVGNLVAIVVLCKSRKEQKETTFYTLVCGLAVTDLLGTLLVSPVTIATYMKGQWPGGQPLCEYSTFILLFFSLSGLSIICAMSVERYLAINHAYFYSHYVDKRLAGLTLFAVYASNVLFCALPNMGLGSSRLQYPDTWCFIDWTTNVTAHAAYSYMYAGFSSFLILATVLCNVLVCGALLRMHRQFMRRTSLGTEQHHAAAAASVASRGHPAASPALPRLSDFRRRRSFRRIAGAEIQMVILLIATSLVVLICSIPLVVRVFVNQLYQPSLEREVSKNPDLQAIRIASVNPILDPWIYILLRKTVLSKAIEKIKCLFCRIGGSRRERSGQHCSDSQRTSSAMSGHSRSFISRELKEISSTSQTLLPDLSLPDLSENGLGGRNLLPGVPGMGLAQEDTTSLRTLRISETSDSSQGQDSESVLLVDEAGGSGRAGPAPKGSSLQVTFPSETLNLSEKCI

O=C(O)CCCCCCC1C(=O)NC(=O)N1CCC(O)C1CCCCC1 (centres unmarked) [BW245C]
EC50 (EP2): 790 nM
EP2 % I.A (EP2): 73%
DP1 % I.A (human DP1 receptor; [6]): 98%
EC50 (human DP1 receptor; [7]): 0.8 nM
EC50 (EP4): > 10000 nM

CCCCC[C@H](O)/C=C/[C@H]1C(=O)C[C@H](O)[C@@H]1C/C=C\CCCC(=O)O [PGD2]
EC50 (EP2): > 10000 nM
EC50 (human DP1 receptor; [7]): 1.3 nM
EC50 (EP1): > 10000 nM

O=C(O)COC[C@H]1CC[C@H](COC(=O)N(c2ccccc2)c2ccc(F)cc2)CC1 [5l, 2-(((1r,4r)-4-(((4-Fluorophenyl)(phenyl)carbamoyloxy)methyl)cyclohexyl)methoxy)acetic Acid]
AUC(0-inf) (Rat PK (iv and oral)): 7900 ng·h/mL
bioavailability (Rat PK (iv and oral)): 100%
Cmax (Rat PK (iv and oral)): 1200 ng/mL
Tmax (Rat PK (iv and oral)): 0.3 h
T1/2 (Rat PK (iv and oral)): 3.9 h
Clobs (Rat PK (iv and oral)): 1.8 L h^–1 kg^–1
half-life [1]: > 1 h
EC50 (rat IP): 535 nM
Emax (rat IP): 91%
Emax (human DP1 receptor): 55%
EC50 (human DP1 receptor; [8]): 620 nM
IC50 (human platelet): 12 nM
half-life [2]: > 1 h
Emax (IP [3]; CHO-K1; read-out: hIP % IA): 89%
EC50 (IP [3]; [9]): 6.6 nM

O=C(O)COC[C@H]1CC[C@H](COC(=O)N(c2ccccc2)c2ccc(F)c(F)c2)CC1 [5o, 2-(((1r,4r)-4-(((3,4-Difluorophenyl)(phenyl)carbamoyloxy)methyl)cyclohexyl)methoxy)acetic Acid]
AUC(0-inf) (Rat PK (iv and oral)): 4500 ng·h/mL
bioavailability (Rat PK (iv and oral)): 24%
Cmax (Rat PK (iv and oral)): 1430 ng/mL
Tmax (Rat PK (iv and oral)): 0.833 h
T1/2 (Rat PK (iv and oral)): 3.2 h
Clobs (Rat PK (iv and oral)): 0.6 L h^–1 kg^–1
half-life [1]: > 1 h
EC50 (rat IP): 640 nM
Emax (rat IP): 95%
Emax (human DP1 receptor): 45%
EC50 (human DP1 receptor; [8]): 5000 nM
IC50 (human platelet): 19 nM
half-life [2]: > 1 h
Emax (IP [3]; CHO-K1; read-out: hIP % IA): 88%
EC50 (IP [3]; [9]): 10 nM

CC(C)N(CCCCOCC(=O)O)c1cnc(-c2ccccc2)c(-c2ccccc2)n1 [compound 2, MRE269]
EC50 (EP2): > 10000 nM
Efficacy (% vs. Iloprost) [95% CI], primary human PASMC cAMP [4]: 41 [33, 49] %
EC50 ([4]; Homo sapiens, PASMC, n = 8, read-out: EC50 [95% CI], primary human PASMC cAMP): 184 nM
Emax (human DP1 receptor): 80%
EC50 (human DP1 receptor; [8]): 154 nM
DP1 % I.A (human DP1 receptor; [6]): 80%
IC50 (human platelet): 288 nM
Emax (IP [3]; CHO-K1, read-out: hIP % IA): 60%
EC50 (IP [3]; [9]): 22 nM
EC50 (EP3v6): > 10000 nM
EC50 (EP4): > 10000 nM
Efficacy (% vs. Iloprost) [95% CI], recombinant IP receptor cAMP (IP [5]): 48 [43, 53] %
EC50 (IP [5]; n = 9, read-out: EC50 [95% CI], recombinant IP receptor cAMP): 151 nM

CCCCC[C@H](O)/C=C/[C@H]1[C@H](O)CC(=O)[C@@H]1C/C=C\CCCC(=O)O [PGE2]
EP2 % I.A (EP2): 84%
EC50 (human DP1 receptor; [7]): 520 nM
EP3v6 % I.A (EP3v6): 100%
EC50 (EP1): 51 nM
EP1 % I.A (EP1): 92%
